Source: publication PMC7104723 (Cell Research, 2020)
“And” between values parts separate entries of the source, which are not always exact repeats. Identical values can stand only once.

Columns and labels:
SARS-CoV S protein = SARS-CoV S protein (Severe acute respiratory syndrome coronavirus, UniProt P59594); assay: cell-based; assay type: cell-based
HCoV-OC43 PsV = conditions: 72 h
HCoV-OC43 S protein = HCoV-OC43 S protein (Human coronavirus OC43, UniProt P36334); assay: cell-based; assay type: cell-based
HCoV-OC43 = assay type: in vivo, mice
SARS-CoV PsV = conditions: 72 h
MERS-CoV PsV = conditions: 72 h
MERS-CoV S protein = MERS-CoV S protein (Middle East respiratory syndrome-related coronavirus, UniProt K9N5Q8); assay: cell-based; assay type: cell-based
SARS-2-HR1 = SARS-2-HR1 (Severe acute respiratory syndrome coronavirus 2, UniProt P0DTC2); assay type: binding, SARS-CoV-2
SARS-CoV-2 S protein = SARS-CoV-2 S protein (Severe acute respiratory syndrome coronavirus 2, UniProt P0DTC2); assay: cell-based; assay type: cell-based

HCoV-OC43 S protein, sequence (P36334 14-1353 limits assumed): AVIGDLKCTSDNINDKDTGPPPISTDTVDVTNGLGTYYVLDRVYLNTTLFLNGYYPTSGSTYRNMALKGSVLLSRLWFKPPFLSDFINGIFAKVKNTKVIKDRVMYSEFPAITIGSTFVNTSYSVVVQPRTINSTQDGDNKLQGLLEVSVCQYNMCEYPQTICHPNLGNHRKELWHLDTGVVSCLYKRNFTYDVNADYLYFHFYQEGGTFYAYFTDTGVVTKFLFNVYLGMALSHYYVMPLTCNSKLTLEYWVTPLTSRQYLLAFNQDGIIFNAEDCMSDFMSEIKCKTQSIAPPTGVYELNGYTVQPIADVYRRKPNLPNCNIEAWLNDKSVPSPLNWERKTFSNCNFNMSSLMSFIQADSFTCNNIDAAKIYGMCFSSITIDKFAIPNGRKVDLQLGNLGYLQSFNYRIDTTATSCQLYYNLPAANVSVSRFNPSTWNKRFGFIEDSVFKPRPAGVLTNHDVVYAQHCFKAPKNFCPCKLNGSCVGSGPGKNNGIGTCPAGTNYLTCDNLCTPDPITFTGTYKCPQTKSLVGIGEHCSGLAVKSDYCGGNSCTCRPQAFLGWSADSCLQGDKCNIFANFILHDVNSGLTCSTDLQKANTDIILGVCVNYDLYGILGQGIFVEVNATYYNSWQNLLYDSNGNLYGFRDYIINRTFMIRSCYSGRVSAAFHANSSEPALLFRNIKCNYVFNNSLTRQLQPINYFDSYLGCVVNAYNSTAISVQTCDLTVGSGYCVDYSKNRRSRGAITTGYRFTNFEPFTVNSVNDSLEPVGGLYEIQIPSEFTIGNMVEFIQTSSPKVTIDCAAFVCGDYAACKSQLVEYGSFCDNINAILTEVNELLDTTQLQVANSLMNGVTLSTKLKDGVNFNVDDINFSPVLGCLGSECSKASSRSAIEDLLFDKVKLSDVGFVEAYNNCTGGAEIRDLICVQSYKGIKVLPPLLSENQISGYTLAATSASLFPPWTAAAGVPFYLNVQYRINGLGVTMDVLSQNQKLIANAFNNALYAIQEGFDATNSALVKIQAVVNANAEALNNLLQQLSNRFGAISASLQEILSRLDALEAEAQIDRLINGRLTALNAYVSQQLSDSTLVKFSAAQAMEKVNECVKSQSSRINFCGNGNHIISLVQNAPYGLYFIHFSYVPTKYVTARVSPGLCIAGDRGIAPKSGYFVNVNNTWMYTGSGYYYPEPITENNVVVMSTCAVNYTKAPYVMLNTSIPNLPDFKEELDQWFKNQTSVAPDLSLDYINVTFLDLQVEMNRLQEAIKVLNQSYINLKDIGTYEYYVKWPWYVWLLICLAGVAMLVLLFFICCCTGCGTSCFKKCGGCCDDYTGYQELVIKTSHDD
MERS-CoV S protein, sequence (K9N5Q8 18-1353 limits assumed): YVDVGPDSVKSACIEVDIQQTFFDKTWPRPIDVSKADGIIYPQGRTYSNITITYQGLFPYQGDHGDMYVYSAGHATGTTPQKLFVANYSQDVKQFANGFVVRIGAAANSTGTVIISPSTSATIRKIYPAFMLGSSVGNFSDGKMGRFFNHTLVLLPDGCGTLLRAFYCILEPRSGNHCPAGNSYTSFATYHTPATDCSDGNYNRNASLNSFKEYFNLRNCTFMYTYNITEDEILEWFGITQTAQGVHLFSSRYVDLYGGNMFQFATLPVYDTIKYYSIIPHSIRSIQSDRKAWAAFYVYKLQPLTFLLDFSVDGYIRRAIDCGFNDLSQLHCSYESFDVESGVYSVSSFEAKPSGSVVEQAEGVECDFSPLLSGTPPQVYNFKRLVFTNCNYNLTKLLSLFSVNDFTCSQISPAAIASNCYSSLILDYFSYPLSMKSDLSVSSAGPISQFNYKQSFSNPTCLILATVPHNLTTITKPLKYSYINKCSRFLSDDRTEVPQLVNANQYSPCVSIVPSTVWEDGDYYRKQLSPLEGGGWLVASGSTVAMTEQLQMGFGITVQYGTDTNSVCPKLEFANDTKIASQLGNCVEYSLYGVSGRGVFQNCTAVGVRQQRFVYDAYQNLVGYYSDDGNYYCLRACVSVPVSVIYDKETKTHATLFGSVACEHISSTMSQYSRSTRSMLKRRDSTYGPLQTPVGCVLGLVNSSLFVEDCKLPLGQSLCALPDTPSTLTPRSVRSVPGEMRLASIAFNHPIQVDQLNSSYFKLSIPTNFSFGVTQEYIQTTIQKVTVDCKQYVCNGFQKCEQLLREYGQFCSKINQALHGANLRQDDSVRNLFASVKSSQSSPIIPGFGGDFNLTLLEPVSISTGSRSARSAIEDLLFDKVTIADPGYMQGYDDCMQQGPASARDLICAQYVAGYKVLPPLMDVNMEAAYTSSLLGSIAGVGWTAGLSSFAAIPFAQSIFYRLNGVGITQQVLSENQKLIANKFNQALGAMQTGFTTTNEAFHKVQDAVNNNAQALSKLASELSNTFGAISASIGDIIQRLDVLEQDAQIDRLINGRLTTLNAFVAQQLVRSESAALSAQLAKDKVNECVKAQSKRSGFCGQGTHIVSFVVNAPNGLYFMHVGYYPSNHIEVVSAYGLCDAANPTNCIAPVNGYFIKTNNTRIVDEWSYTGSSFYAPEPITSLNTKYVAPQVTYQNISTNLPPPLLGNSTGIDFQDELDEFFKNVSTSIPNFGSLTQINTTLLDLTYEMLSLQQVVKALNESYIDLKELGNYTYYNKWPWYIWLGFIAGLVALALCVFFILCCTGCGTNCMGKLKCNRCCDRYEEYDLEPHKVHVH

With CC[C@H](C)[C@H](NC(=O)[C@H](C)NC(=O)[C@H](CCC(=O)O)NC(=O)[C@H](CCC(=O)O)NC(=O)[C@H](CC(C)C)NC(=O)[C@H](CCCCN)NC(=O)[C@H](CCCCN)NC(=O)[C@H](CCSC)NC(=O)[C@H](CCC(=O)O)NC(=O)[C@H](Cc1ccc(O)cc1)NC(=O)[C@H](CCC(=O)O)NC(=O)[C@H](CC(C)C)NC(=O)[C@H](CC(=O)O)NC(=O)[C@H](CC(C)C)NC(=O)[C@H](Cc1ccccc1)NC(=O)[C@@H](NC(=O)[C@@H](NC(=O)[C@H](CC(N)=O)NC(=O)[C@@H](NC(=O)[C@H](CCC(N)=O)NC(=O)[C@H](CC(=O)O)NC(=O)[C@H](CC(C)C)NC(=O)[C@@H](N)CO)[C@@H](C)CC)C(C)C)[C@@H](C)O)C(=O)N[C@@H](CCCCN)C(=O)N[C@@H](CCCCN)C(=O)N[C@@H](CC(C)C)C(=O)N[C@@H](CCC(=O)O)C(=O)N[C@@H](CCC(=O)O)C(=O)N[C@@H](CO)C(=O)N[C@@H](Cc1ccc(O)cc1)C(=O)N[C@H](C(=O)N[C@@H](CC(=O)O)C(=O)N[C@@H](CC(C)C)C(=O)N[C@@H](CCCCN)C(=O)N[C@@H](CCC(=O)O)C(=O)N[C@@H](CC(C)C)C(=O)NCC(=O)N[C@@H](CO)C(=O)NCC(=O)N[C@@H](CO)C(=O)NCC(=O)NCCOCCOCCOCCOCCC(=O)N[C@@H](CSCC(=O)O[C@H]1CC[C@@]2(C)C(=CC[C@H]3[C@@H]4CC[C@H]([C@H](C)CCCC(C)C)[C@@]4(C)CC[C@@H]32)C1)C(N)=O)[C@@H](C)CC [EK1C4] the “Fold more potent than EK1, Rs3367 PsV infection” value (Rs3367 PsV) was 89 fold, the IC50 (Rs3367 PsV; 72 h) was 0.0669 µM and the “Fold more active than EK1, SARS-CoV S-mediated cell–cell fusion” value (SARS-CoV S protein) was “about 94 fold”. The IC50 (HCoV-OC43 PsV) was 0.0377 µM, the “Fold more potent than EK1, OC43-S-mediated cell–cell fusion” value (HCoV-OC43 S protein) was 101 fold and the “Fold more potent than EK1, live HCoV-NL63 infection” value (live HCoV-NL63) was 19 fold. The IC50 (live HCoV-NL63; 1 h) was 0.188 µM, the “Fold more potent than EK1, SARS-CoV-2 PsV infection” value (SARS-CoV-2 PsV) was ~150 fold and 149 fold and the IC50 (SARS-CoV-2 PsV; PsV, 72 h) was 0.0158 µM. The “Fold more active than EK1, HCoV-NL63 PsV infection” value (HCoV-NL63 PsV) was ~99 fold, the IC50 (HCoV-NL63 PsV; 72 h) was 0.0766 µM and the “Fold more potent than EK1, live HCoV-229E infection” value (live HCoV-229E) was 42 fold. The IC50 (live HCoV-229E; 1 h) was 0.102 µM, the “Viral titer in brain, Post-0.5 group” value (HCoV-OC43; 0.5 mg/kg intranasal 0.5 h after challenge, day 5, 5 mice, limit of detection lg2.0 TCID50/g) was “not detected” and the “Brain histopathology, Post-0.5 group” value (HCoV-OC43; 0.5 mg/kg intranasal 0.5 h after challenge, day 5, one mouse) was “no apparent histopathological changes”. For the same compound, the “Brain histopathology, Pre-0.5 group” value (HCoV-OC43; 0.5 mg/kg intranasal 0.5 h before challenge, day 5, one mouse) was “no apparent histopathological changes”, the “Viral titer in brain, Pre-0.5 group” value (HCoV-OC43; 0.5 mg/kg intranasal 0.5 h before challenge, day 5 after infection, 5 mice, limit of detection lg2.0 TCID50/g) was “not detected” and the “Mice with high viral titer detected in brain, Post-2 group” value (HCoV-OC43; 0.5 mg/kg intranasal 2 h after challenge, day 5, 5 mice, limit of detection lg2.0 TCID50/g) was 4 out of 5 mice. The “Viral titer in brain, Pre-2 group” value (HCoV-OC43; 0.5 mg/kg intranasal 2 h before challenge, day 5, 5 mice, limit of detection lg2.0 TCID50/g) was “not detected”, the “Brain histopathology, Pre-2 group” value (HCoV-OC43; 0.5 mg/kg intranasal 2 h before challenge, day 5, one mouse) was “no apparent histopathological changes” and the “Viral titer in brain, Pre-4 group” value (HCoV-OC43; 0.5 mg/kg intranasal 4 h before challenge, day 5, 5 mice, limit of detection lg2.0 TCID50/g) was “not detected”. For the same compound, the “Brain histopathology, Pre-4 group” value (HCoV-OC43; 0.5 mg/kg intranasal 4 h before challenge, day 5, one mouse) was “no apparent histopathological changes”, the “Viral titer in brain, Pre-12 group” value (HCoV-OC43; 0.5 mg/kg intranasal 12 h before challenge, day 5, 5 mice, limit of detection lg2.0 TCID50/g) was “only moderate level of viral titer was detected in brain tissue in one of the 5 mice” and the “Brain histopathology, Pre-12 group” value (HCoV-OC43; 0.5 mg/kg intranasal 12 h before challenge, day 5, one mouse) was “no apparent histopathological changes”. The “Mice with high viral titer detected in brain, Pre-24 group” value (HCoV-OC43; 0.5 mg/kg intranasal 24 h before challenge, day 5, 5 mice, limit of detection lg2.0 TCID50/g) was “all 5 mice”, the “Survival rate, Post-0.5 group” value (HCoV-OC43; newborn mice, intranasal 0.5 mg/kg 0.5 h after HCoV-OC43 infection) was 100% and the “Survival rate, Post-2 group” value (HCoV-OC43; newborn mice, intranasal 0.5 mg/kg 2 h after HCoV-OC43 infection) was 16.7%. For the same compound, the “Final survival rate, Pre-0.5 group” value (HCoV-OC43; newborn mice, single intranasal dose 0.5 mg/kg 0.5 h before HCoV-OC43 challenge (100 TCID50), 14 days) was 100%, the “Final survival rate, Pre-2 group” value (HCoV-OC43; newborn mice, single intranasal dose 0.5 mg/kg 2 h before HCoV-OC43 challenge (100 TCID50), 14 days) was 100% and the “Final survival rate, Pre-4 group” value (HCoV-OC43; newborn mice, single intranasal dose 0.5 mg/kg 4 h before HCoV-OC43 challenge (100 TCID50), 14 days) was 100%. For the same compound, the “Final survival rate, Pre-12 group” value (HCoV-OC43; newborn mice, single intranasal dose 0.5 mg/kg 12 h before HCoV-OC43 challenge (100 TCID50), 14 days) was 83%, the “Final survival rate, Pre-24 group” value (HCoV-OC43; newborn mice, single intranasal dose 0.5 mg/kg 24 h before HCoV-OC43 challenge (100 TCID50), 14 days) was 0% and the IC50 (SARS-CoV PsV) was 0.0117 µM. The “Fold more active than EK1, live SARS-CoV-2 infection” value (live SARS-CoV-2) was 67 fold, the IC50 (live SARS-CoV-2; live, 72 h) was 0.0365 µM and the “Fold more potent than EK1, live HCoV-OC43 infection” value (live HCoV-OC43) was 62 fold. For the same compound, the IC50 (live HCoV-OC43; 1 h) was 0.0248 µM, the IC50 (MERS-CoV PsV) was 0.0111 µM and the “Fold more potent than EK1, live MERS-CoV infection” value (live MERS-CoV) was 190 fold. The IC50 (live MERS-CoV; 72 h) was 0.0042 µM, the “Fold more active than EK1, HCoV-229E PsV infection” value (HCoV-229E PsV) was “about 319 fold” and the IC50 (HCoV-229E PsV; 72 h) was 0.0124 µM. The “Fold more potent than EK1, MERS-S-mediated cell–cell fusion” value (MERS-CoV S protein) was 95 fold, the “Stability and Tm of complex with SARS-2-HR1 compared with EK1 complex” value (SARS-2-HR1) was “higher stability and increased Tm values” and the “Fold more potent than EK1C1, SARS-CoV-2 S-mediated cell–cell fusion” value (SARS-CoV-2 S protein) was 43 fold. The “Fold more potent than EK1, WIV1 PsV infection” value (WIV1 PsV) was 175 fold and the IC50 (WIV1 PsV; 72 h) was 0.0308 µM.
